Source: article PMC10258794, “To Fold or Not to Fold: Diastereomeric Optimization of an α-Helical Antimicrobial Peptide” (Journal of Medicinal Chemistry, 2023)
Converted amounts (≈) assume the structure as drawn. Where two headings read alike, the source gives them in different places.

What was measured:
Burkolderia cenocepacia = assay: microbe, parasite or virus in culture; conditions: for MIC Burkolderia cenocepacia: MDR strain, MH broth pH 7.4, 16–20 h, 37 °C
Experimental: (§1) Antimicrobial activity was determined for all peptides on E. coli W3110, P. aeruginosa PAO1, A. baumannii ATCC19606, K. pneumoniae NCTC418, and methicillin-resistant S. aureus COL and for selected peptides on P. aeruginosa PA14 and the polymyxin B-resistant derivatives PA14 4.13, PA14 4.18, and PA14 2P4 as well as the clinical isolates ZEM-1A and ZEM9A, K. pneumoniae OXA-48, Enterobacter cloacae, Stenotrophomonas maltophilia, B. cenocepacia, and Staphylococus epidermis. To determine the MIC, the broth microdilution method was used.[75] A single bacterial colony was grown in LB medium overnight at 37 °C and 180 rpm shaking. The compounds were prepared as stock solutions of 2 mg/mL in sterilized milliQ deionized water, added to the first well of 96-well sterile, polypropylene round-bottom microtiter plates (TPP, untreated, Corning Incorporated, Kennebunk, USA), and diluted serially by 1/2. […] The bacterial inoculum was prepared by measuring the absorbance of the overnight culture, which was diluted to concentration of the bacteria was quantified by measuring absorbance at 600 nm and diluted to an OD600 of 0.022 in MH medium pH 7.4 (Sigma-Aldrich, Buchs, Switzerland). The sample solutions (150 μL) were mixed with 4 μL of diluted bacterial suspension with a final inoculation of about 5 × 10^5 CFU. For each test, two columns of the plate were kept for sterility control (MH medium only) and growth control (MH medium with bacterial inoculum, no compound). […] The plates were incubated at 37 °C for 16–20 h under static conditions. 15 μL of 3-(4,5-dimethylthiazol-2-yl)-2,5-diphenyltetrazolium bromide (MTT)[76] (1 mg/mL in sterilized milliQ deionized water) was added to each well, and the plates were incubated at room temperature until MTT staining was completed. The MIC was defined as the lowest concentration of the dendrimer that inhibits the visible growth of the tested bacteria (yellow) with the unaided eye.

Enterobacter cloacae = assay: microbe, parasite or virus in culture; conditions: pH 7.4
Experimental: as §1

P. aeruginosa PA14 = assay: microbe, parasite or virus in culture; conditions: for MIC PA14: MH broth pH 7.4, 16–20 h, 37 °C; for MIC P. aeruginosa PA14: supplementary CSV
Experimental: as §1

P. aeruginosa ZEM-1A = assay: microbe, parasite or virus in culture; conditions: pH 7.4
Experimental: as §1

PA14 2P4 (pmrB) = assay: microbe, parasite or virus in culture; conditions: supplementary CSV
Experimental: as §1

PA14 4.13 (phoQ) = assay: microbe, parasite or virus in culture; conditions: supplementary CSV
Experimental: as §1

PA14 4.18 (pmrB) = assay: microbe, parasite or virus in culture; conditions: supplementary CSV
Experimental: as §1

P. aeruginosa ZEM9A = assay: microbe, parasite or virus in culture; format: cell-based, Pseudomonas aeruginosa; conditions: pH 7.4
Experimental: as §1

K. pneumoniae Oxa-48 = assay: MIC broth microdilution, K. pneumoniae Oxa-48; format: cell-based, Klebsiella pneumoniae; conditions: MDR strain; MH broth pH 7.4, 16–20 h, 37 °C
Experimental: as §1

[1] = test system: Stenotrophomonas maltophilia; assay: microbe, parasite or virus in culture; format: cell-based; conditions: pH 7.4
Experimental: as §1

Staphylococcus epidermis = assay: MIC broth microdilution, Staphylococcus epidermis; format: cell-based; conditions: pH 7.4
Experimental: as §1

HEK293 cells = assay: Alamar blue cytotoxicity, HEK293; format: cell-based, human; conditions: 24 h, mean ± SD, n = 3, read-out: Toxicity on HEK293 cells
Experimental: (§2) The A549 human lung adenocarcinoma cells are derived from a patient and were kindly given to us by Dr. Georgia Konstatinidou (Pharmacology Institute, Bern University). HEK293T cells were obtained from ATCC (CRL-11268). A549 and HEK293 were cultured in an incubator at 37 °C with 5% CO2 in RPMI-1640 (Gibco) and DMEM (Gibco) containing 10% fetal bovine serum (Thermo Fisher), 100 I.U./mL penicillin, and 100 μg/mL streptomycin (Gibco).
(§3) The viability of the cells was assessed with an AlamarBlue assay (ThermoFisher). Cells were seeded into 96-well plates, 4000 cells/well (HEK293) and 8000 cells/well (A549), the day before the experiment. Cells were then treated with the increasing concentration of the compound and incubated for 24 h at 37 °C in the presence of 5% CO2. The next day, the medium was removed and replaced by a 10% AlamarBlue solution in full growth medium (DMEM or RPMI-1640). The cells were incubated for 3–5 h at 37 °C with 5% CO2 in a humidified atmosphere. The fluorescence was then measured on a Tecan Infinite M1000 Pro plate reader at λex 560 nm and λem 590 nm. The value was normalized according to the untreated cells.

A549 cells = assay: Alamar blue cytotoxicity, A549; format: cell-based, human; conditions: 24 h, mean ± SD, n = 3, read-out: Toxicity on A549 lung cancern cells
Experimental: as §2, §3

A. baumannii ATCC19606 = test system: A. baumannii ATCC19606
Outline: (§4)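 A colony was grown overnight in LB at 37 °C, diluted in MH medium pH 7.4 to OD600 0.022 and added to 1/2 serial dilutions of compound (final about 5 × 10^5 CFU).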

E. coli W3110 = test system: E. coli W3110
Outline: as §4

K. pneumoniae NCTC418 = test system: K. pneumoniae NCTC418
Outline: as §4

P. aeruginosa PAO1 = test system: P. aeruginosa PAO1
Outline: as §4

S. aureus COL MRSA = conditions: for MIC S. aureus COL MRSA: MH broth pH 7.4, 16–20 h, 37 °C; for MIC S. aureus COL: supplementary CSV, ranges of Table 1 given as one number
Outline: as §4

S. aureus Newman = conditions: for MIC S. aureus Newman: MH broth pH 7.4, 16–20 h, 37 °C; for MIC S. aureus Newmann: supplementary CSV
[2] = MH broth pH 7.4, 16–20 h, 37 °C
[3] = supplementary CSV, ranges of Table 1 given as one number

Row | Structure (SMILES) | MIC Burkolderia cenocepacia (Burkolderia cenocepacia) | MIC Enterobacter cloacae (Enterobacter cloacae) | MIC PA14 (P. aeruginosa PA14) | MIC P. aeruginosa PA14 (P. aeruginosa PA14) | MIC ZEM-1A (P. aeruginosa ZEM-1A) | MIC P. aeruginosaPA14 2P4 (PA14 2P4 (pmrB)) | MIC P. aeruginosa PA14 4.13 (PA14 4.13 (phoQ)) | MIC P. aeruginosa PA14 4.18 (PA14 4.18 (pmrB)) | MIC ZEM9A (P. aeruginosa ZEM9A) | MIC K. pneumoniae Oxa-48 (K. pneumoniae Oxa-48) | MIC Stenotrophomonas maltophilia [1] | MIC Staphylococcus epidermis (Staphylococcus epidermis) | IC50 (HEK293 cells) | IC50 (A549 cells) | MIC A. baumannii ATCC19606 (A. baumannii ATCC19606; [2]) | MIC A. baumannii ATCC19606 (A. baumannii ATCC19606; [3]) | MIC E. coli W3110 (E. coli W3110; [2]) | MIC K. pneumoniae NCTC418 (K. pneumoniae NCTC418; [2]) | MIC K. pneumoniae NCTC418 (K. pneumoniae NCTC418; [3]) | MIC P. aeruginosa PAO1 (P. aeruginosa PAO1; [2]) | also measured
1 | CC(C)C[C@H](NC(=O)[C@H](CC(C)C)NC(=O)[C@H](CC(C)C)NC(=O)[C@H](CCCCN)NC(=O)[C@H](CC(C)C)NC(=O)[C@H](CC(C)C)NC(=O)[C@@H](CCCCN)NC(=O)[C@H](CC(C)C)NC(=O)[C@H](CC(C)C)NC(=O)[C@@H](CCCCN)NC(=O)[C@H](N)CCCCN)C(N)=O [HP10, kkLLkLLKLLL] | >64 mg/L | 2 mg/L (≈ 1.51 µM) | 2 mg/L (≈ 1.51 µM) | 2 mg/L (≈ 1.51 µM) | 2 mg/L (≈ 1.51 µM) | 32 mg/L (≈ 24.2 µM) | 4 mg/L (≈ 3.03 µM) | 16 mg/L (≈ 12.1 µM) | 4 mg/L (≈ 3.03 µM) | 2 mg/L (≈ 1.51 µM) | 2 mg/L (≈ 1.51 µM) | 2 mg/L (≈ 1.51 µM) | 75.1 ± 1.7 µM | 15 ± 0.7 µM | 2 mg/L (≈ 1.51 µM) | 2 mg/L (≈ 1.51 µM) | 2 mg/L (≈ 1.51 µM) | 4 mg/L (≈ 3.03 µM) | 4 mg/L (≈ 3.03 µM) | 4 mg/L (≈ 3.03 µM) | MIC B. cenocepacia (Burkolderia cenocepacia; supplementary CSV): > 64 mg/L; MIC P. aeruginosa PAO1 (P. aeruginosa PAO1; [3]): 4 mg/L (≈ 3.03 µM); MIC S. aureus COL MRSA (S. aureus COL MRSA): 2 mg/L (≈ 1.51 µM); MIC S. aureus COL (S. aureus COL MRSA): 2 mg/L (≈ 1.51 µM); MIC S. aureus Newman (S. aureus Newman): 2 mg/L (≈ 1.51 µM); MIC S. aureus Newmann (S. aureus Newman): 2 mg/L (≈ 1.51 µM)
2 | CC(C)C[C@H](NC(=O)[C@H](CC(C)C)NC(=O)[C@H](CC(C)C)NC(=O)[C@H](CCCCN)NC(=O)[C@H](CC(C)C)NC(=O)[C@H](CC(C)C)NC(=O)[C@H](CCCCN)NC(=O)[C@@H](CC(C)C)NC(=O)[C@H](CC(C)C)NC(=O)[C@@H](CCCCN)NC(=O)[C@@H](N)CCCCN)C(N)=O [HP4, KkLlKLLKLLL] | >64 mg/L | 2 mg/L (≈ 1.51 µM) | 2 mg/L (≈ 1.51 µM) | 2 mg/L (≈ 1.51 µM) | 2 mg/L (≈ 1.51 µM) | 64 mg/L (≈ 48.4 µM) | 4 mg/L (≈ 3.03 µM) | 32 mg/L (≈ 24.2 µM) | 4 mg/L (≈ 3.03 µM) | 2 mg/L (≈ 1.51 µM) | 2 mg/L (≈ 1.51 µM) | 2 mg/L (≈ 1.51 µM) | 43.7 ± 0.8 µM | 4.6 ± 4.9 µM | 2 to 4 mg/L | 3 mg/L (≈ 2.27 µM) | 2 to 4 mg/L | 2 mg/L (≈ 1.51 µM) | 2 mg/L (≈ 1.51 µM) | 2 to 4 mg/L | MIC E. coli W3110 (E. coli W3110; [3]): 3 mg/L (≈ 2.27 µM); MIC P. aeruginosa PAO1 (P. aeruginosa PAO1; [3]): 3 mg/L (≈ 2.27 µM); MIC S. aureus COL MRSA (S. aureus COL MRSA): 2 to 4 mg/L; MIC S. aureus COL (S. aureus COL MRSA): 3 mg/L (≈ 2.27 µM); MIC S. aureus Newman (S. aureus Newman): 2 mg/L (≈ 1.51 µM); MIC S. aureus Newmann (S. aureus Newman): 2 mg/L (≈ 1.51 µM)
